The source of these data is patent US9896441B2 (Lycera Corporation, priority 2014, dated 2018).

Structures are written as SMILES. Bounds are passed on as bounds.

For orientation: EC50 means the concentration needed to bring the measured effect to its halfway point.

The target in one assay is T1, Gal4-RORγ-LBD (Homo sapiens, UniProt P51449).
T1 construct: expressed in transfected cells
T1 sequence (P51449 269-508 limits assumed): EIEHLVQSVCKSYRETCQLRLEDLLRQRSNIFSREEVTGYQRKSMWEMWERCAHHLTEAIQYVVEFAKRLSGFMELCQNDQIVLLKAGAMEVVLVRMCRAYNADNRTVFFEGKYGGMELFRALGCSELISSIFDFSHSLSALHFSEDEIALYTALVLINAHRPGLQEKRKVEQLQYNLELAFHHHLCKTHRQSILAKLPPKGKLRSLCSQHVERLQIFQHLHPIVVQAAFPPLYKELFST
The assay is described as follows: Gal4-RORγ Luciferase Reporter Assay in HEK-293T Cells. Type of assay: cell-based. The conditions noted are these: HEK-293 cells, luciferase reporter. Put shortly: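 HEK-293 cells were co-transfected with Gal4-RORγ-LBD and a Gal4-luciferase reporter, then exposed overnight at 37 °C to compounds with […] ursolic acid present (0.2% DMSO). Luminescence was read with One-Glo after 10 min at RT, untreated signal was set as 100, and Max Response was taken as the upper plateau of a 4-parameter logistic fit.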
In general terms: A reporter such as luciferase makes a cellular process visible.

In another assay the target is T2, RORγ-LBD (Homo sapiens, UniProt P51449).
T2 construct: made in house; host or cells: SF9 cells (baculovirus); used as diluted lysate
T2 sequence (P51449 269-508 limits assumed): T1 sequence (P51449 269-508 limits assumed)
The experiment in a line: RORγ-Ligand Binding Domain (LBD) TR-FRET Assay.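 As to TR-FRET Assay Max Response: 665/615 nm signal ratio set to 100 without ursolic acid or test compound.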 Type of assay: biochemical. The conditions noted are these: for TR-FRET Assay Max Response: maximum response. Put shortly:
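This TR-FRET coactivator assay pairs baculovirus-expressed His-RORγ-LBD (~3 nM final) with biotin-SRC1 LXXLL peptide at 200 nM final in pH 7.0 Tris/KCl/EDTA/DTT/BSA buffer.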
(In general: In TR-FRET formats the signal depends on donor and acceptor labels being close together.)

As for `CC1CCC(=Cc2ccc3c(c2)N(S(=O)(=O)c2cc(C(F)(F)F)cnc2OCCO)C[C@H](CCC(=O)O)O3)CC1` (stereo partly drawn) [Example 95P, 3-((2S)-4-((2-(2-hydroxyethoxy)-5-(trifluoromethyl)pyridin-3-yl)sulfonyl)-6-((4-methylcyclohexylidene)methyl)-3,4-dihydro-2H-benzo[b][1,4]oxazin-2-yl)propanoic acid], the concentration giving a half-maximal response (EC50) was 0.5 to 5 µM on Gal4-RORγ-LBD (with ursolic acid) and less than 0.5 µM at RORγ-LBD (RORγ-LBD TR-FRET).

In the case of `CC1CCCC/C1=C\c1ccc2c(c1)N(S(=O)(=O)c1cccc(C(F)(F)F)c1)C[C@H](CCC(=O)O)O2` (stereo partly drawn) [Example 95Q, 3-((2S)-6-((E)-(2-methylcyclohexylidene)methyl)-4-((3-(trifluoromethyl)phenyl)-sulfonyl)-3,4-dihydro-2H-benzo[b][1,4]oxazin-2-yl)propanoic acid], the EC50 at Gal4-RORγ-LBD (with ursolic acid) and on RORγ-LBD (RORγ-LBD TR-FRET) was less than 0.5 µM in each case.

`CC1CCCC/C1=C\c1ccc2c(c1)N(S(=O)(=O)c1cc(C(F)(F)F)cnc1OCCO)C[C@H](CCC(=O)O)O2` (some centres unmarked) [Example 95R]: the half-maximal effective concentration (EC50) at Gal4-RORγ-LBD (with ursolic acid) and at RORγ-LBD (RORγ-LBD TR-FRET) was less than 0.5 µM each time.

In the case of `O=C(O)CC[C@H]1CN(S(=O)(=O)c2cccc(C(F)(F)F)c2)c2cc(/C=C3\CC4CCC3C4)ccc2O1` (stereo partly drawn) [Example 95S, 3-((2S)-6-((E)-bicyclo[2.2.1]heptan-2-ylidenemethyl)-4-((3-(trifluoromethyl)phenyl)sulfonyl)-3,4-dihydro-2H-benzo[b][1,4]oxazin-2-yl)propanoic acid], the EC50 at Gal4-RORγ-LBD (with ursolic acid) and at RORγ-LBD (RORγ-LBD TR-FRET) was less than 0.5 µM throughout.

Take `O=C(O)CC[C@H]1CN(S(=O)(=O)c2cc(C(F)(F)F)cnc2OCCO)c2cc(/C=C3\CC4CCC3C4)ccc2O1` (stereo partly drawn) [Example 95T, 3-((2S)-6-((E)-bicyclo[2.2.1]heptan-2-ylidenemethyl)-4-((2-(2-hydroxyethoxy)-5-(trifluoromethyl)pyridin-3-yl)sulfonyl)-3,4-dihydro-2H-benzo[b][1,4]oxazin-2-yl)propanoic acid]: the concentration for a half-maximal effect (EC50) is 0.5 to 5 µM on Gal4-RORγ-LBD (with ursolic acid) and less than 0.5 µM at RORγ-LBD (RORγ-LBD TR-FRET).

As for `CC1CCCC(=Cc2ccc3c(c2)N(S(=O)(=O)c2cc(C(F)(F)F)cnc2OCCO)C[C@H](CCC(=O)O)O3)C1` (stereo partly drawn) [Example 95U, 3-((2S)-4-((2-(2-hydroxyethoxy)-5-(trifluoromethyl)pyridin-3-yl)sulfonyl)-6-((3-methylcyclohexylidene)methyl)-3,4-dihydro-2H-benzo[b][1,4]oxazin-2-yl)propanoic acid], the EC50 at Gal4-RORγ-LBD (with ursolic acid) is 0.5 to 5 µM; at RORγ-LBD (RORγ-LBD TR-FRET) it was less than 0.5 µM.

As for `CC1(C)CCC(=Cc2ccc3c(c2)N(S(=O)(=O)c2cc(C(F)(F)F)cnc2OCCO)C[C@H](CCC(=O)O)O3)CC1` [Example 95W, (S)-3-(6-((4,4-dimethyl-cyclohexylidene)methyl)-4-((2-(2-hydroxyethoxy)-5-(trifluoromethyl)pyridin-3-yl)sulfonyl)-3,4-dihydro-2H-benzo[b][1,4]oxazin-2-yl)propanoic acid], the values for the EC50 on Gal4-RORγ-LBD (with ursolic acid) and at RORγ-LBD (RORγ-LBD TR-FRET) were 0.5 to 5 µM and less than 0.5 µM, respectively.

As for `O=C(O)CC[C@H]1CN(S(=O)(=O)c2cc(C(F)(F)F)cnc2OCCO)c2cc(/C=C3/CCCOC3)ccc2O1` [Example 95Y, (S,Z)-3-(6-((dihydro-2H-pyran-3(4H)-ylidene)methyl)-4-((2-(2-hydroxyethoxy)-5-(trifluoromethyl)pyridin-3-yl)sulfonyl)-3,4-dihydro-2H-benzo[b][1,4]oxazin-2-yl)propanoic acid], the concentration giving a half-maximal response (EC50) is 0.5 to 5 µM on Gal4-RORγ-LBD (with ursolic acid) and less than 0.5 µM on RORγ-LBD (RORγ-LBD TR-FRET).

Regarding `C[C@@H]1C/C(=C\c2ccc3c(c2)N(S(=O)(=O)c2cccc(C(F)(F)F)c2)C[C@H](CCC(=O)O)O3)C[C@H](C)C1` [Example 95Z, 3-((S)-6-((E)-((3R,5S)-3,5-dimethylcyclohexylidene)-methyl)-4-((3-(trifluoromethyl)-phenyl)sulfonyl)-3,4-dihydro-2H-benzo[b][1,4]oxazin-2-yl)propanoic acid], the results for the EC50 at Gal4-RORγ-LBD (with ursolic acid) and at RORγ-LBD (RORγ-LBD TR-FRET) were 0.5 to 5 µM and less than 0.5 µM, respectively.

For the compound `C/C(=C\c1ccc2c(c1)N(S(=O)(=O)c1cccc(C(F)(F)F)c1)C[C@H]([C@H](C)O)O2)c1c(F)cccc1Cl` [Example 96, (S)-1-((R)-6-((E)-2-(2-Chloro-6-fluorophenyl)prop-1-en-1-yl)-4-((3-(trifluoromethyl)phenyl)sulfonyl)-3,4-dihydro-2H-benzo[b][1,4]oxazin-2-yl)ethan-1-ol], the concentration for a half-maximal effect (EC50) on Gal4-RORγ-LBD (with ursolic acid) and on RORγ-LBD (RORγ-LBD TR-FRET) was less than 0.5 µM each time.

For `CCn1cc(S(=O)(=O)N2C[C@H]([C@H](C)O)Oc3ccc(/C=C(\C)c4c(F)cccc4Cl)cc32)c(Cl)n1` [Example 97, (S)-1-((R)-4-((3-Chloro-1-ethyl-1H-pyrazol-4-yl)sulfonyl)-6-((E)-2-(2-chloro-6-fluorophenyl)prop-1-en-1-yl)-3,4-dihydro-2H-benzo[b][1,4]oxazin-2-yl)ethan-1-ol], the EC50 on Gal4-RORγ-LBD (with ursolic acid) and on RORγ-LBD (RORγ-LBD TR-FRET) was less than 0.5 µM each time.

With `C/C(=C\c1ccc2c(c1)N(S(=O)(=O)c1cccc(C(F)(F)F)c1)C[C@H]([C@@H](C)O)O2)c1c(F)cccc1Cl` [Example 98, (R)-1-((R)-6-((E)-2-(2-Chloro-6-fluorophenyl)prop-1-en-1-yl)-4-((3-(trifluoromethyl)phenyl)sulfonyl)-3,4-dihydro-2H-benzo[b][1,4]oxazin-2-yl)ethan-1-ol], the concentration for a half-maximal effect (EC50) at Gal4-RORγ-LBD (with ursolic acid) and on RORγ-LBD (RORγ-LBD TR-FRET) was less than 0.5 µM throughout.

In the case of `CCn1cc(S(=O)(=O)N2C[C@H]([C@@H](C)O)Oc3ccc(/C=C(\C)c4c(F)cccc4Cl)cc32)c(Cl)n1` [Example 99, (R)-1-((R)-4-((3-Chloro-1-ethyl-1H-pyrazol-4-yl)sulfonyl)-6-((E)-2-(2-chloro-6-fluorophenyl)prop-1-en-1-yl)-3,4-dihydro-2H-benzo[b][1,4]oxazin-2-yl)ethan-1-ol], the values for the EC50 on Gal4-RORγ-LBD (with ursolic acid) and on RORγ-LBD (RORγ-LBD TR-FRET) were 0.5 to 5 µM and less than 0.5 µM, respectively.

Consider `C/C(=C\c1ccc2c(c1)N(S(=O)(=O)c1cccc(C(F)(F)F)c1)C[C@H]([C@@H](C)N)O2)c1c(F)cccc1Cl` [Example 100, (R)-1-((R)-6-((E)-2-(2-Chloro-6-fluorophenyl)prop-1-en-1-yl)-4-((3-(trifluoromethyl)phenyl)sulfonyl)-3,4-dihydro-2H-benzo[b][1,4]oxazin-2-yl)ethan-1-amine], for which the EC50 on Gal4-RORγ-LBD (with ursolic acid) was 0.5 to 5 µM; on RORγ-LBD (RORγ-LBD TR-FRET) it was less than 0.5 µM.

For the compound `CCn1cc(S(=O)(=O)N2C[C@H]([C@@H](C)N)Oc3ccc(/C=C(\C)c4c(F)cccc4Cl)cc32)c(Cl)n1` [Example 101, (R)-1-((R)-4-((3-Chloro-1-ethyl-1H-pyrazol-4-yl)sulfonyl)-6-((E)-2-(2-chloro-6-fluorophenyl)prop-1-en-1-yl)-3,4-dihydro-2H-benzo[b][1,4]oxazin-2-yl)ethan-1-amine], the half-maximal effective concentration (EC50) on Gal4-RORγ-LBD (with ursolic acid) was more than 10 µM; at RORγ-LBD (RORγ-LBD TR-FRET), less than 0.5 µM.

Consider `CCn1cc(S(=O)(=O)N2C[C@H]([C@@H](C)NC(C)=O)Oc3ccc(/C=C(\C)c4c(F)cccc4Cl)cc32)c(Cl)n1` [Example 102, N—((R)-1-((R)-4-((3-Chloro-1-ethyl-1H-pyrazol-4-yl)sulfonyl)-6-((E)-2-(2-chloro-6-fluorophenyl)prop-1-en-1-yl)-3,4-dihydro-2H-benzo[b][1,4]oxazin-2-yl)ethyl)acetamide], for which the concentration giving a half-maximal response (EC50) at Gal4-RORγ-LBD (with ursolic acid) and on RORγ-LBD (RORγ-LBD TR-FRET) was less than 0.5 µM each time.

For the compound `CC(=O)N[C@H](C)[C@H]1CN(S(=O)(=O)c2cccc(C(F)(F)F)c2)c2cc(/C=C(\C)c3c(F)cccc3Cl)ccc2O1` [Example 103, N—((R)-1-((R)-6-((E)-2-(2-Chloro-6-fluorophenyl)prop-1-en-1-yl)-4-((3-(trifluoromethyl)phenyl)sulfonyl)-3,4-dihydro-2H-benzo[b][1,4]oxazin-2-yl)ethyl)acetamide], the EC50 on Gal4-RORγ-LBD (with ursolic acid) and at RORγ-LBD (RORγ-LBD TR-FRET) was less than 0.5 µM in each case.

In the case of `CCn1cc(S(=O)(=O)N2C[C@H]([C@@H](C)NS(C)(=O)=O)Oc3ccc(/C=C(\C)c4c(F)cccc4Cl)cc32)c(Cl)n1` [Example 104, N—((R)-1-((R)-4-((3-Chloro-1-ethyl-1H-pyrazol-4-yl)sulfonyl)-6-((E)-2-(2-chloro-6-fluorophenyl)prop-1-en-1-yl)-3,4-dihydro-2H-benzo[b][1,4]oxazin-2-yl)ethyl)methanesulfonamide], the 50% effective concentration (EC50) on Gal4-RORγ-LBD (in presence of ursolic acid) was more than 10 µM; at RORγ-LBD (RORγ-LBD TR-FRET assay) it was less than 0.5 µM. The “TR-FRET Assay Max Response” value on RORγ-LBD (RORγ-LBD TR-FRET assay) is “*** (a value in the range of greater than 150 to 200)”.

For `C/C(=C\c1ccc2c(c1)N(S(=O)(=O)c1cccc(C(F)(F)F)c1)C[C@H]([C@@H](C)NS(C)(=O)=O)O2)c1c(F)cccc1Cl` [Example 105, N—((R)-1-((R)-6-((E)-2-(2-Chloro-6-fluorophenyl)prop-1-en-1-yl)-4-((3-(trifluoromethyl)phenyl)sulfonyl)-3,4-dihydro-2H-benzo[b][1,4]oxazin-2-yl)ethyl)methanesulfonamide], on Gal4-RORγ-LBD (in presence of ursolic acid), the concentration for a half-maximal effect (EC50) was less than 0.5 µM. For the same compound, the “Gal4-RORγ Assay Max Response” value on Gal4-RORγ-LBD (in presence of ursolic acid, maximum response) was “** (a value in the range of greater than 90 to 150)”. Further, on RORγ-LBD (RORγ-LBD TR-FRET assay), the EC50 was less than 0.5 µM and the “TR-FRET Assay Max Response” value is reported as “** (a value in the range of greater than 90 to 150)”.
